From the supplement of paper PMC10627819

Assays:
[1] = test system: S. aureus Newman; test: fitness (endpoint OD595 vs no drug) (fraction); higher = more growth
In short: (§1)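 Bacterial fitness was scored as optical density at the stationary-phase transition relative to the robust mean of no-drug control wells. Scores are capped at 1. The growth data were OD595 readings every 30 min for 14 h at 37 °C, background-subtracted against the first reading, from 384-well plates inoculated at OD595 0.01 in TSB, LB Lennox or CY.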

[2] = test system: B. subtilis 168; test: as above
In short: as §1

[3] = test system: S. aureus DSM 20231; test: Bliss interaction score (quartile over a dose matrix) (fitness difference); higher = more antagonism (negative = synergy)
In short: (§2)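 Growth in each well was taken as OD595 at entry into stationary phase. Dividing by the plate's robust no-drug mean and capping at 1 gave fitness, and single-drug fitness was inferred from the combination data. The Bliss score, observed minus product-expected fitness, is summarised by quartiles over technical, biological and donor/recipient replicates.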

[4] = test system: S. aureus Newman; test: as above
In short: as §2

[5] = test system: S. pneumoniae D39V; test: as above
In short: as §2

[6] = test system: B. subtilis 168; test: as above
In short: as §2

[7] = test system: S. pneumoniae D39V; test: fitness (endpoint OD595 vs no drug) (fraction); higher = more growth
In short: as §1
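For Bliss interaction score (quartile over a dose matrix) in this document: first quartile when negative (synergy) and third quartile when positive (antagonism).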

CO/N=C(\C(=O)N[C@@H]1C(=O)N2C(C(=O)O)=C(COC(N)=O)CS[C@H]12)c1ccco1 [Cefuroxime] + O=C(O[C@@H]1Cc2c(O)cc(O)cc2O[C@@H]1c1cc(O)c(O)c(O)c1)c1cc(O)c(O)c(O)c1 [EGCG]
fitness, one replicate
Conditions	first compound 0.04875 µg/mL	first compound 0.0975 µg/mL	first compound 0.195 µg/mL	first compound 0.39 µg/mL	first compound 0.78 µg/mL	first compound 1.562 µg/mL	first compound 3.125 µg/mL	first compound 6.25 µg/mL
[1], partner 12.5 µg/mL	0.885	0.801	0.879	–	–	–	–	–
[1], partner 25 µg/mL	0.767	0.773	0.756	–	–	–	–	–
[1], partner 50 µg/mL	0.688	0.617	0.561	–	–	–	–	–
[2], partner 6.25 µg/mL	–	–	–	0.425	0.411	0.356	0.3	0.304
[2], partner 12.5 µg/mL	–	–	–	0.461	0.436	0.195	0.236	0.279
[2], partner 25 µg/mL	–	–	–	0.274	0.318	0.103	0.064	0.0477

fitness, [2]
Conditions	first compound 0.04875 µg/mL	first compound 0.0975 µg/mL	first compound 0.195 µg/mL
partner 6.25 µg/mL	0.74	0.667	0.438
partner 12.5 µg/mL	0.376	0.493	0.506
partner 25 µg/mL	0.249	0.219	0.17

Conditions	Bliss interaction score
[3]	0.0989
[4]	0.0827
[5]	0.0461
[6]	0.158

O=C(O)c1cn(C2CC2)c2cc(N3CCNCC3)c(F)cc2c1=O [Ciprofloxacin] + CC1=C\[C@@H](O)CC(=O)Cc2nc(co2)C(=O)N2CCC=C2C(=O)O[C@H](C(C)C)[C@H](C)/C=C/C(=O)NC\C=C\1 [Virginiamycin M1]
fitness
Conditions	partner 0.0625 µg/mL	partner 0.125 µg/mL	partner 0.25 µg/mL	partner 0.5 µg/mL	partner 1 µg/mL	partner 2 µg/mL
[1], first compound 0.0375 µg/mL	0.664	0.662	0.672	–	–	–
[1], first compound 0.075 µg/mL	0.616	0.658	0.703	–	–	–
[1], first compound 0.15 µg/mL	0.0348	0.0378	0.0632	–	–	–
[2], first compound 0.0098 µg/mL	0.941	0.896	0.859	–	–	–
[2], first compound 0.0195 µg/mL	0.739	0.703	0.705	–	–	–
[2], first compound 0.039 µg/mL	0.139	0.0393	0.0545	–	–	–
[7], first compound 0.125 µg/mL	–	–	–	0.969	0.96	0.909
[7], first compound 0.25 µg/mL	–	–	–	0.874	0.842	0.784

fitness, one replicate
Conditions	first compound 0.078 µg/mL	first compound 0.125 µg/mL	first compound 0.156 µg/mL	first compound 0.25 µg/mL	first compound 0.312 µg/mL	first compound 0.5 µg/mL
[1], partner 0.5 µg/mL	0.638	–	0.45	–	0.128	–
[1], partner 1 µg/mL	0.785	–	0.503	–	0.125	–
[1], partner 2 µg/mL	0.72	–	0.472	–	0.161	–
[7], partner 0.15 µg/mL	–	0.954	–	0.894	–	0.807
[7], partner 0.3 µg/mL	–	0.928	–	0.844	–	0.816

Conditions	Bliss interaction score
[3]	0.0396
[4]	0.0616
[5]	-0.0532
[6]	-0.0881

O=C(O)c1cn(C2CC2)c2cc(N3CCNCC3)c(F)cc2c1=O [Ciprofloxacin] + CC(C1CCC(C(O1)OC2C(CC(C(C2O)OC3C(C(C(CO3)(C)O)NC)O)N)N)N)NC [Gentamicin]
fitness, [1], one replicate, main component drawn
Conditions	first compound 0.0375 µg/mL	first compound 0.075 µg/mL	first compound 0.15 µg/mL
partner 0.375 µg/mL	0.704	0.787	0.0591
partner 0.75 µg/mL	0.712	0.728	0.0774
partner 1.5 µg/mL	0.639	0.175	0.0856

main component drawn
Conditions	fitness
[1], first compound 0.0375 µg/mL, partner 0.5 µg/mL	0.786
[1], first compound 0.0375 µg/mL, partner 1 µg/mL	0.877
[1], first compound 0.0375 µg/mL, partner 2 µg/mL	0.917
[1], first compound 0.075 µg/mL, partner 0.5 µg/mL	0.74
[1], first compound 0.075 µg/mL, partner 1 µg/mL	0.786
[1], first compound 0.075 µg/mL, partner 2 µg/mL	0.783
[1], first compound 0.15 µg/mL, partner 0.5 µg/mL	0.43
[2], first compound 0.0098 µg/mL, partner 0.0625 µg/mL	0.881
[2], first compound 0.0195 µg/mL, partner 0.0625 µg/mL	0.703
[2], first compound 0.039 µg/mL, partner 0.25 µg/mL	0.117
[7], first compound 0.125 µg/mL, partner 2 µg/mL	0.954
[7], first compound 0.125 µg/mL, partner 4 µg/mL	0.92
[7], first compound 0.125 µg/mL, partner 8 µg/mL	0.884
[7], first compound 0.25 µg/mL, partner 2 µg/mL	0.792
[7], first compound 0.25 µg/mL, partner 4 µg/mL	0.766
[7], first compound 0.25 µg/mL, partner 8 µg/mL	0.677

main component drawn
Conditions	Bliss interaction score
[3]	0.0655
[4]	0.12
[5]	-0.0953
[6]	0.19

O=C(O)c1cn(C2CC2)c2cc(N3CCNCC3)c(F)cc2c1=O [Ciprofloxacin] + CCC[C@@H]1C[C@@H](C(=O)N[C@@H]([C@H]2O[C@H](SC)[C@H](O)[C@@H](O)[C@H]2O)[C@H](C)Cl)N(C)C1 [Clindamycin]
Conditions	fitness
[1], first compound 0.0375 µg/mL, partner 0.0312 µg/mL	0.545
[1], first compound 0.0375 µg/mL, partner 0.0625 µg/mL	0.425
[1], first compound 0.0375 µg/mL, partner 0.125 µg/mL	0.11
[1], first compound 0.075 µg/mL, partner 0.0312 µg/mL	0.604
[1], first compound 0.075 µg/mL, partner 0.0625 µg/mL	0.475
[1], first compound 0.075 µg/mL, partner 0.125 µg/mL	0.153
[1], first compound 0.15 µg/mL, partner 0.0312 µg/mL	0.335
[1], first compound 0.15 µg/mL, partner 0.0625 µg/mL	0.292
[1], first compound 0.15 µg/mL, partner 0.125 µg/mL	0.104
[2], first compound 0.0098 µg/mL, partner 0.0625 µg/mL	0.508
[2], first compound 0.0098 µg/mL, partner 0.125 µg/mL	0.394
[2], first compound 0.0098 µg/mL, partner 0.25 µg/mL	0.373
[2], first compound 0.0195 µg/mL, partner 0.0625 µg/mL	0.416
[2], first compound 0.0195 µg/mL, partner 0.125 µg/mL	0.337
[2], first compound 0.0195 µg/mL, partner 0.25 µg/mL	0.312
[2], first compound 0.039 µg/mL, partner 0.0625 µg/mL	0.39
[2], first compound 0.039 µg/mL, partner 0.125 µg/mL	0.311
[2], first compound 0.039 µg/mL, partner 0.25 µg/mL	0.303
[7], first compound 0.125 µg/mL, partner 0.0125 µg/mL	0.763
[7], first compound 0.125 µg/mL, partner 0.015 µg/mL	0.8
[7], first compound 0.125 µg/mL, partner 0.025 µg/mL	0.531
[7], first compound 0.125 µg/mL, partner 0.03 µg/mL	0.54
[7], first compound 0.125 µg/mL, partner 0.05 µg/mL	0.2
[7], first compound 0.125 µg/mL, partner 0.06 µg/mL	0.325
[7], first compound 0.25 µg/mL, partner 0.0125 µg/mL	0.733
[7], first compound 0.25 µg/mL, partner 0.025 µg/mL	0.494
[7], first compound 0.25 µg/mL, partner 0.05 µg/mL	0.168
[7], first compound 0.5 µg/mL, partner 0.0125 µg/mL	0.636
[7], first compound 0.5 µg/mL, partner 0.015 µg/mL	0.564
[7], first compound 0.5 µg/mL, partner 0.025 µg/mL	0.434
[7], first compound 0.5 µg/mL, partner 0.03 µg/mL	0.431
[7], first compound 0.5 µg/mL, partner 0.05 µg/mL	0.158
[7], first compound 0.5 µg/mL, partner 0.06 µg/mL	0.294

fitness, one replicate
Conditions	partner 0.0039 µg/mL	partner 0.0078 µg/mL	partner 0.015 µg/mL	partner 0.0156 µg/mL	partner 0.03 µg/mL	partner 0.06 µg/mL
[2], first compound 0.0098 µg/mL	≥ 1	0.403	–	0.818	–	–
[2], first compound 0.0195 µg/mL	0.903	0.394	–	0.742	–	–
[2], first compound 0.039 µg/mL	0.627	0.326	–	0.557	–	–
[7], first compound 0.25 µg/mL	–	–	0.708	–	0.454	0.259

Conditions	Bliss interaction score
[3]	0.0603
[4]	0.157
[5]	0.061
[6]	0.226

O=C(O)c1cn(C2CC2)c2cc(N3CCNCC3)c(F)cc2c1=O [Ciprofloxacin] + CCN(CC)CCOC(=O)c1ccc(N)cc1 [Procaine]
fitness
Conditions	partner 85.5 µg/mL	partner 171 µg/mL	partner 342 µg/mL
[1], first compound 0.0375 µg/mL	0.65	0.644	0.635
[1], first compound 0.075 µg/mL	0.658	–	–
[2], first compound 0.0098 µg/mL	0.883	0.918	0.918
[2], first compound 0.0195 µg/mL	0.688	0.755	0.721
[2], first compound 0.039 µg/mL	0.0386	0.0363	0.0396
[7], first compound 0.125 µg/mL	≥ 1	≥ 1	≥ 1
[7], first compound 0.25 µg/mL	0.9	0.923	0.91

Conditions	Bliss interaction score
[3]	-0.053
[4]	0.0759
[5]	0.0982
[6]	-0.0792
